This note sets out measurements from US9096560B2, “5-heterocyclylalkyl-3-hydroxy-2-phenylcyclopent-2-enones as herbicides” (Syngenta Limited, priority 2008, dated 2015).

What all share (format): in vivo
For test [1], the system named is Avena fatua (AVEFA). The test is described as follows: Example B pre-emergence herbicidal test, AVEFA. To be noted: Avena fatua, 312 h, rate 250 g/ha, evaluated after 13 days, 100=total damage to plant, 0=no damage to plant. The method, boiled down: (§1)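 Plants were rated 13 days after treatment, 0 = no damage to 100 = total damage. They were grown in a glasshouse at 24/16 °C, 14 h light, 65% humidity and watered twice daily. Pre-emergence spray was applied one day after sowing, formulated in acetone/water 50:50 with 0.5% Tween 20.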

Test [2] deals with Echinochloa crus-galli (ECHCG). Put plainly: Example B pre-emergence herbicidal test, ECHCG. To be noted: Echinochloa crus-galli, 312 h, rate 250 g/ha, evaluated after 13 days, 100=total damage to plant, 0=no damage to plant. The procedure, abridged:
as §1

In test [3] the test system is Alopecurus myosuroides (ALOMY). Put plainly: Example B pre-emergence herbicidal test, ALOMY. To be noted: Alopecurus myosuroides, 312 h, rate 250 g/ha, evaluated after 13 days, 100=total damage to plant, 0=no damage to plant. The method, boiled down:
as §1

Test [4] concerns Lolium perenne (LOLPE). Put plainly: Example B pre-emergence herbicidal test, LOLPE. To be noted: Lolium perenne, 312 h, rate 250 g/ha, evaluated after 13 days, 100=total damage to plant, 0=no damage to plant. The method, boiled down: as §1
Test [5] has as its system Lolium perenne (LOLPE). The test is described as follows: Example B post-emergence herbicidal test, LOLPE. To be noted: Lolium perenne, 312 h, rate 250 g/ha, evaluated after 13 days, scale 0-100, read-out: Post-emergence activity LOLPE (100=total damage to plant; 0=no damage to plant). The method, boiled down:
(§2)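 Foliar application to 8-day-old pot-grown seedlings in a glasshouse (24/16 °C, 14 h photoperiod, 65% humidity). Spray solution was derived from an acetone/water (50:50) formulation with 0.5% Tween 20. Injury was assessed 13 days later on a 0–100 scale.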

Test [6] has as its system Avena fatua (AVEFA). Put plainly: Example B post-emergence herbicidal test, AVEFA. To be noted: Avena fatua, 312 h, rate 250 g/ha, evaluated after 13 days, scale 0-100, read-out: Post-emergence activity AVEFA (100=total damage to plant; 0=no damage to plant). The procedure, abridged: as §2
In test [7] the test system is Echinochloa crus-galli (ECHCG). Put plainly: Example B post-emergence herbicidal test, ECHCG. To be noted: Echinochloa crus-galli, 312 h, rate 250 g/ha, evaluated after 13 days, scale 0-100, read-out: Post-emergence activity ECHCG (100=total damage to plant; 0=no damage to plant). The procedure, abridged: as §2
Test [8] deals with Alopecurus myosuroides (ALOMY). The test is described as follows: Example B post-emergence herbicidal test, ALOMY. To be noted: Alopecurus myosuroides, 312 h, rate 250 g/ha, evaluated after 13 days, scale 0-100, read-out: Post-emergence activity ALOMY (100=total damage to plant; 0=no damage to plant). The method, boiled down:
as §2

Consider `CCc1cc(C)cc(C)c1C1C(=O)CC(CC2CCOCC2)C1=O` (stereo not shown) [Compound T50], for which the pest or weed control at 250 g/ha (with Avena fatua (AVEFA) [1]; in test [2]; in test [3]; with Lolium perenne (LOLPE) [4]; with Lolium perenne (LOLPE) [5]; in the test with Avena fatua (AVEFA) [6]) was 100% throughout. Also, the pest or weed control at 250 g/ha in test [7] and in test [8] was 100% each time.

`Cc1cc(C)c(C2C(=O)CC(CC3CCN(C(=O)c4ccc(Cl)cc4Cl)CC3)C2=O)c(C)c1` (stereo not shown) [Compound T71]: the pest or weed control at 250 g/ha was determined as 20% in the test with Avena fatua (AVEFA) [1]; 10% in test [2]; 20% in test [3]; 30% in the test with Lolium perenne (LOLPE) [4]; 40% with Lolium perenne (LOLPE) [5]; 80% with Avena fatua (AVEFA) [6]. Further, the pest or weed control at 250 g/ha came out at 70% in test [7] and 30% in test [8].

With `CCSC(=O)N1CCC(/C=C2\CC(=O)C(c3c(C)cc(C)cc3C)C2=O)C1` (stereo not shown) [Compound T33], the pest or weed control at 250 g/ha stood at 50% with Avena fatua (AVEFA) [1]; 90% in test [2]; 60% in test [3]; 90% with Lolium perenne (LOLPE) [4]; 60% in the test on Lolium perenne (LOLPE) [5]; 70% with Avena fatua (AVEFA) [6]. In addition, the pest or weed control at 250 g/ha in test [7] and in test [8] was 60% in each case.

In the case of `Cc1cc(-c2ccccc2F)cc(C)c1C1C(=O)CC(CC2CCOCC2)C1=O` (stereo not shown) [Compound T139], the pest or weed control at 250 g/ha with Avena fatua (AVEFA) [1] was 60%; in test [2], 90%; in test [3], 70%; in the test with Lolium perenne (LOLPE) [4] it was 80%; with Lolium perenne (LOLPE) [5], 90%; with Avena fatua (AVEFA) [6] it was 90%. The pest or weed control at 250 g/ha in test [7] is 100%; in test [8], 90%.

On to `CC(C)=CC(=O)N1CCC(CC2CC(=O)C(c3c(C)cc(C)cc3C)C2=O)CC1` (stereo not shown) [Compound T104], for which the pest or weed control at 250 g/ha is 60% with Avena fatua (AVEFA) [1]; 90% in test [2]; 60% in test [3]; 70% with Lolium perenne (LOLPE) [4]; 80% in the test on Lolium perenne (LOLPE) [5]; 90% with Avena fatua (AVEFA) [6]. Also, the pest or weed control at 250 g/ha in test [7] and in test [8] was 70% throughout.

Turning to `Cc1cc(C)c(C2C(=O)C/C(=C\C3CCN(S(C)(=O)=O)C3)C2=O)c(C)c1` (stereo not shown) [Compound T31], the pest or weed control at 250 g/ha with Avena fatua (AVEFA) [1] turned out to be 90%; in test [2], 80%; in test [3], 80%; with Lolium perenne (LOLPE) [4], 90%; in the test on Lolium perenne (LOLPE) [5] it was 70%; with Avena fatua (AVEFA) [6] it was 90%. The pest or weed control at 250 g/ha in test [7] was 80%; in test [8] it was 90%.

With `Cc1cc(C)c(C2C(=O)CC(CC3CCN(C(=O)c4ccc(Cl)c(Cl)c4)CC3)C2=O)c(C)c1` (stereo not shown) [Compound T74], the pest or weed control at 250 g/ha in the test on Avena fatua (AVEFA) [1] worked out at 20%; in test [2], 50%; in test [3], 30%; in the test with Lolium perenne (LOLPE) [4], 30%; in the test with Lolium perenne (LOLPE) [5], 40%; in the test with Avena fatua (AVEFA) [6], 90%. For the same molecule, the pest or weed control at 250 g/ha was 100% in test [7] and 70% in test [8].

Turning to `Cc1cc(C)c(C2=C(OC(=O)N3CCCCC3)CC(CC3CCOC3)C2=O)c(C)c1` (stereo not shown) [Compound P29], the pest or weed control at 250 g/ha came out at 20% with Avena fatua (AVEFA) [1]; 0% in test [2]; 50% in test [3]; 90% in the test on Lolium perenne (LOLPE) [4]; 100% with Lolium perenne (LOLPE) [5]; 70% in the test with Avena fatua (AVEFA) [6]. Further, the pest or weed control at 250 g/ha in test [7] is 30%; in test [8], 80%.

Turning to `Cc1cc(C)c(C2C(=O)CC(C(O)C3CCOC(C)(C)C3)C2=O)c(C)c1` (stereo not shown) [Compound T38], the pest or weed control at 250 g/ha with Avena fatua (AVEFA) [1] stood at 40%; in test [2] it was 100%; in test [3] it was 90%; with Lolium perenne (LOLPE) [4], 70%; in the test on Lolium perenne (LOLPE) [5] it was 100%; in the test with Avena fatua (AVEFA) [6], 100%. The pest or weed control at 250 g/ha in test [7] and in test [8] was 100% in each case.

In the case of `Cc1cc(C)c(C2C(=O)CC(CC3CCN(C(=O)C(C)Cl)CC3)C2=O)c(C)c1` (stereo not shown) [Compound T87], the pest or weed control at 250 g/ha in the test with Avena fatua (AVEFA) [1] worked out at 90%; in test [2] it was 60%; in test [3] it was 90%; with Lolium perenne (LOLPE) [4] it was 100%; in the test with Lolium perenne (LOLPE) [5], 90%; in the test with Avena fatua (AVEFA) [6], 90%. Moreover, the pest or weed control at 250 g/ha in test [7] and in test [8] was 70% throughout.

`Cc1cc(C)c(C2C(=O)CC(CC3CCN(C(=O)c4ccsc4)CC3)C2=O)c(C)c1` (stereo not shown) [Compound T126]: the pest or weed control at 250 g/ha stood at 40% with Avena fatua (AVEFA) [1]; 50% in test [2]; 30% in test [3]; 60% in the test on Lolium perenne (LOLPE) [4]; 70% with Lolium perenne (LOLPE) [5]; 70% with Avena fatua (AVEFA) [6]. Further, the pest or weed control at 250 g/ha in test [7] came out at 60%; in test [8] it was 50%.

For the molecule `Cc1cc(C)c(C2C(=O)CC(CC3CCCO3)C2=O)c(C)c1` (stereo not shown) [Compound T18], the pest or weed control at 250 g/ha in the test with Avena fatua (AVEFA) [1] stood at 70%; in test [2] it was 100%; in test [3], 100%; in the test on Lolium perenne (LOLPE) [4], 100%; in the test on Lolium perenne (LOLPE) [5], 100%; in the test with Avena fatua (AVEFA) [6], 70%. Besides, the pest or weed control at 250 g/ha worked out at 90% in test [7] and 80% in test [8].

Regarding `Cc1cc(C)c(C2C(=O)C/C(=C\C3CCN(C(=O)c4ccccc4)C3)C2=O)c(C)c1` (stereo not shown) [Compound T34], the pest or weed control at 250 g/ha came out at 70% in the test with Avena fatua (AVEFA) [1]; 100% in test [2]; 70% in test [3]; 90% in the test on Lolium perenne (LOLPE) [4]; 90% in the test with Lolium perenne (LOLPE) [5]; 100% with Avena fatua (AVEFA) [6]. The values for the pest or weed control at 250 g/ha in test [7] and in test [8] were 100% and 90%, respectively.

In the case of `Cc1cc(C)c(C2C(=O)CC(CC3CCN(S(C)(=O)=O)C3)C2=O)c(C)c1` (stereo not shown) [Compound T36], the pest or weed control at 250 g/ha with Avena fatua (AVEFA) [1] came to 90%; in test [2] it was 100%; in test [3] it was 90%; with Lolium perenne (LOLPE) [4], 90%; with Lolium perenne (LOLPE) [5], 80%; in the test with Avena fatua (AVEFA) [6], 90%. Further, the pest or weed control at 250 g/ha came out at 90% in test [7] and 80% in test [8].

Take `Cc1cc(C)c(C2C(=O)CC(CC3CCN(C(=O)C(C)C)CC3)C2=O)c(C)c1` (stereo not shown) [Compound T80]: the pest or weed control at 250 g/ha in the test on Avena fatua (AVEFA) [1] is 70%; in test [2], 70%; in test [3], 70%; in the test with Lolium perenne (LOLPE) [4], 100%; in the test with Lolium perenne (LOLPE) [5] it was 90%; with Avena fatua (AVEFA) [6] it was 100%. The pest or weed control at 250 g/ha in test [7] amounted to 80%; in test [8], 90%.

Regarding `Cc1cc(C)c(C2=C(OC(=O)c3ccccc3)C/C(=C\C3CCN(C(=O)c4ccccc4)C3)C2=O)c(C)c1` (stereo not shown) [Compound P48], the pest or weed control at 250 g/ha with Avena fatua (AVEFA) [1] amounted to 60%; in test [2], 40%; in test [3] it was 70%; with Lolium perenne (LOLPE) [4], 80%; in the test with Lolium perenne (LOLPE) [5], 90%; with Avena fatua (AVEFA) [6], 100%. Besides, the pest or weed control at 250 g/ha in test [7] and in test [8] was 90% each time.

In the case of `Cc1cc(C)c(C2C(=O)CC(CC3CCN(C(=O)C(C)(C)C)C3)C2=O)c(C)c1` (stereo not shown) [Compound T143], the pest or weed control at 250 g/ha worked out at 50% in the test with Avena fatua (AVEFA) [1]; 100% in test [2]; 80% in test [3]; 100% with Lolium perenne (LOLPE) [4]; 60% in the test with Lolium perenne (LOLPE) [5]; 80% in the test on Avena fatua (AVEFA) [6]. Besides, the pest or weed control at 250 g/ha in test [7] and in test [8] was 60% each time.
